Where two headings read alike, the source gives them in different places.
Columns and labels:
CYP 2C19 = CYP 2C19 (Homo sapiens, UniProt P33261); experiment: CYP450 assay (luminescence); type: in vitro ADME; conditions: control compound at 100 μM, read-out: inhibitory activity against human CYP 2C19
Experimental: The resulting substance was reacted with NADPH for 20 minutes at 37° C. and a detection reagent was added to terminate the reaction. After stabilization at room temperature for 20 minutes, a luminescence signal was measured.

CYP 1A2 = CYP 1A2 (Homo sapiens, UniProt P05177); experiment: CYP450 assay (luminescence); type: in vitro ADME; conditions: compound at 10 μM
Experimental: (§1) Compound 5 and a positive control stock solution were diluted with water to prepare a 40 μM working solution, and a solution containing an enzyme and a substrate was prepared using water and buffer. Compound 5/control/positive control and the solution were each dispensed on a 96-well and preincubated at 37° C. for 10 minutes. The resulting substance was reacted with NADPH for 20 minutes at 37° C. and a detection reagent was added to terminate the reaction. After stabilization at room temperature for 20 minutes, a luminescence signal was measured.

Ba/F3 FLT3-ITD = Ba/F3 FLT3-ITD growth inhibition; type: cell-based; conditions: Ba/F3 FLT3-ITD cells
Ba/F3 parental = Ba/F3 parental growth inhibition; type: cell-based; conditions: Mus musculus, BaF3; Ba/F3 parental cells
ARK5/NUAK1 [1] = target: T1, ARK5/NUAK1 (Homo sapiens, UniProt O60285); experiment: Kinase screening, HotSpot assay (Reaction Biology); type: biochemical
T1 construct: purchased Reaction Biology Corporation
T1 sequence (O60285 1-661): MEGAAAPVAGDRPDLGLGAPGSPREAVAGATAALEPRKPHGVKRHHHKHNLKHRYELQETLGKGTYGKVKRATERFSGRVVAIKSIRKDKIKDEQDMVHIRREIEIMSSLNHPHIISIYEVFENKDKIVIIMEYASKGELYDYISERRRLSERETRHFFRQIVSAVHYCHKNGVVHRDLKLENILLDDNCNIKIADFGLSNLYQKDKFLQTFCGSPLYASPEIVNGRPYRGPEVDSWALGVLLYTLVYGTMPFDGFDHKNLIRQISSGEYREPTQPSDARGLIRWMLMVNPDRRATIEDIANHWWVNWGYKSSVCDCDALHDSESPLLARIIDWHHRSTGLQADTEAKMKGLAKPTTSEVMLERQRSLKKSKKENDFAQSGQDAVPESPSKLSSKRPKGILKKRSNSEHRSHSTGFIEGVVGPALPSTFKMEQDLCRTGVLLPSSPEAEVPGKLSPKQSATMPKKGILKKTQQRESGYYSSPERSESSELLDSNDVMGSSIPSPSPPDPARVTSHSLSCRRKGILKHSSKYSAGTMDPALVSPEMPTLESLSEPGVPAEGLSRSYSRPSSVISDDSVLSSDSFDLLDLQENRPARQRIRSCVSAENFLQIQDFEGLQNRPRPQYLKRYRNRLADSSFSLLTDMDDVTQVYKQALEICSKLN
Experimental: (§2) Kinase screening was performed using a “HotSpot” assay platform method by Reaction Biology Corporation. The reaction buffer used herein contained 20 mM HEPES (pH 7.5), 10 mM MgCl2, 1 mM EGTA, 0.02% Brij35, 0.02 mg/mL BSA, 0.1 mM Na3VO4, 2 mM DTT and 1% DMSO. The required cofactors were added in accordance with the kinase reaction. Freshly made buffer and cofactors were added at a concentration of 20 μM during the selected enzyme reaction. A solution of the test compound in dimethylsulfoxide (DMSO) was added at a suitable concentration to this solution. In order to initiate reaction, […] (specific activity […]) was added and incubated at room temperature for 2 hours. The test compound was screened at a starting concentration of 20 μM in a 10-dose IC50 mode. IC50 of Staurosporine used as a control drug was obtained at a starting concentration of 20 μM in a 10-dose IC50 mode.

JAK1 = target: T2, JAK1 (Homo sapiens, UniProt P23458); experiment: Kinase screening, HotSpot assay (Reaction Biology); type: biochemical
T2 construct: purchased Reaction Biology Corporation
T2 sequence (P23458 whole entry): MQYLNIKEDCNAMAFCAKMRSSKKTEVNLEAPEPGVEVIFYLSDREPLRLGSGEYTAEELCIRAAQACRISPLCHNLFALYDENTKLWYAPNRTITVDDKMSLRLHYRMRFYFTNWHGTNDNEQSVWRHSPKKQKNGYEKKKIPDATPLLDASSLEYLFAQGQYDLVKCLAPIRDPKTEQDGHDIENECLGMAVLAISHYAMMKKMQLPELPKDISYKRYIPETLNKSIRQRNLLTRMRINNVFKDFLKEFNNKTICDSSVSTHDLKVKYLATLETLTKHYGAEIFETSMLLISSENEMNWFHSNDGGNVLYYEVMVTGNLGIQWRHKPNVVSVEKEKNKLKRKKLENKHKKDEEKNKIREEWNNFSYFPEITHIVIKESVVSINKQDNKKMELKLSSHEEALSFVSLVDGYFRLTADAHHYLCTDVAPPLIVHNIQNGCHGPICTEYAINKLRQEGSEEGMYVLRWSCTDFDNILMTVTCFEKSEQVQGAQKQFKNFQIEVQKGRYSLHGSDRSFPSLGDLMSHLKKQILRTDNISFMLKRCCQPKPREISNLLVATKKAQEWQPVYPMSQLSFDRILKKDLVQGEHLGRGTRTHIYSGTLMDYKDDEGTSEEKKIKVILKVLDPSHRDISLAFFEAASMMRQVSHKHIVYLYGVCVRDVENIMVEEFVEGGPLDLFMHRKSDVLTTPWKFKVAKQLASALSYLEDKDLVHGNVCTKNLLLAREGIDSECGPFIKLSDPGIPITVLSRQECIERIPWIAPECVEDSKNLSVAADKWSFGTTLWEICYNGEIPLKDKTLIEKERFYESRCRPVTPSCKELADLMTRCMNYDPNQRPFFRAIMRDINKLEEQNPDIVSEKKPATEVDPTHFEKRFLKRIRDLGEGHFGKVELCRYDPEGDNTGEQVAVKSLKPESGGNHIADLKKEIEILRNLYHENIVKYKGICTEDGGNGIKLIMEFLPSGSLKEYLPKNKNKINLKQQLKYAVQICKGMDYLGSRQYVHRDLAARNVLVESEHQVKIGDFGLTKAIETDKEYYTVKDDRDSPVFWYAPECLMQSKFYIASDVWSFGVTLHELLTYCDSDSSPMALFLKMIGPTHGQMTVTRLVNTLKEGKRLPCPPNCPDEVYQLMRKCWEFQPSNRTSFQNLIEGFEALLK
Experimental: as §2

ACK1 = target: T3, ACK1 (Homo sapiens, UniProt Q07912); experiment: Kinase screening, HotSpot assay (Reaction Biology); type: biochemical
T3 construct: purchased Reaction Biology Corporation
T3 sequence (Q07912 whole entry): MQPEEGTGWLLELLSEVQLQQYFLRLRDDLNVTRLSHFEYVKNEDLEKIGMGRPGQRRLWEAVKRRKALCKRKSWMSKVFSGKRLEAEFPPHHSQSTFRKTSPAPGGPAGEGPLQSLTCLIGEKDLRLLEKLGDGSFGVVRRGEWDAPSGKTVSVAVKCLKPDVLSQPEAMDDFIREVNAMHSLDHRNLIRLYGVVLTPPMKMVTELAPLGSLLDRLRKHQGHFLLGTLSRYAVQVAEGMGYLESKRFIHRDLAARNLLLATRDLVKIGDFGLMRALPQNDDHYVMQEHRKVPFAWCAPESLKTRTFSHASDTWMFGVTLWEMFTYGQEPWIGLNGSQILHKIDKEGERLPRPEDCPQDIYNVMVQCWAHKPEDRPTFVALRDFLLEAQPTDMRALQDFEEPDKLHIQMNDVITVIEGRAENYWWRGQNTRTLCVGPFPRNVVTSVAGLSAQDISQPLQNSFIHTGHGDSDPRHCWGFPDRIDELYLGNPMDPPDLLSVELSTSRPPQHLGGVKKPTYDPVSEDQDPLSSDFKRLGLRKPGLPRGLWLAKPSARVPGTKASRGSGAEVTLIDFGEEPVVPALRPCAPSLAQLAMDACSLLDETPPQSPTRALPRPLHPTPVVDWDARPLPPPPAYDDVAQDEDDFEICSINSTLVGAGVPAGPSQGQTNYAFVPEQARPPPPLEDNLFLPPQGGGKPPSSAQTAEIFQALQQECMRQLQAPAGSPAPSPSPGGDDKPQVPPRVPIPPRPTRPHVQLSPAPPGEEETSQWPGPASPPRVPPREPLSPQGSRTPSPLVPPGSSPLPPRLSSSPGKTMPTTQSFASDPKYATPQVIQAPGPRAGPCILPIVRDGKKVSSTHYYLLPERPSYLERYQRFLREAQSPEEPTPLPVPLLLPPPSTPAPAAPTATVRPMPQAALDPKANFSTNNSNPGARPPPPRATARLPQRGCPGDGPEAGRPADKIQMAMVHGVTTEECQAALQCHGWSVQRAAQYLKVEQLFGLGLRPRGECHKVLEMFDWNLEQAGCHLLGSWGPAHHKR
Experimental: as §2

JAK2 = target: T4, JAK2 (Homo sapiens, UniProt O60674); experiment: Kinase screening, HotSpot assay (Reaction Biology); type: biochemical
T4 construct: purchased Reaction Biology Corporation
T4 sequence (O60674 whole entry): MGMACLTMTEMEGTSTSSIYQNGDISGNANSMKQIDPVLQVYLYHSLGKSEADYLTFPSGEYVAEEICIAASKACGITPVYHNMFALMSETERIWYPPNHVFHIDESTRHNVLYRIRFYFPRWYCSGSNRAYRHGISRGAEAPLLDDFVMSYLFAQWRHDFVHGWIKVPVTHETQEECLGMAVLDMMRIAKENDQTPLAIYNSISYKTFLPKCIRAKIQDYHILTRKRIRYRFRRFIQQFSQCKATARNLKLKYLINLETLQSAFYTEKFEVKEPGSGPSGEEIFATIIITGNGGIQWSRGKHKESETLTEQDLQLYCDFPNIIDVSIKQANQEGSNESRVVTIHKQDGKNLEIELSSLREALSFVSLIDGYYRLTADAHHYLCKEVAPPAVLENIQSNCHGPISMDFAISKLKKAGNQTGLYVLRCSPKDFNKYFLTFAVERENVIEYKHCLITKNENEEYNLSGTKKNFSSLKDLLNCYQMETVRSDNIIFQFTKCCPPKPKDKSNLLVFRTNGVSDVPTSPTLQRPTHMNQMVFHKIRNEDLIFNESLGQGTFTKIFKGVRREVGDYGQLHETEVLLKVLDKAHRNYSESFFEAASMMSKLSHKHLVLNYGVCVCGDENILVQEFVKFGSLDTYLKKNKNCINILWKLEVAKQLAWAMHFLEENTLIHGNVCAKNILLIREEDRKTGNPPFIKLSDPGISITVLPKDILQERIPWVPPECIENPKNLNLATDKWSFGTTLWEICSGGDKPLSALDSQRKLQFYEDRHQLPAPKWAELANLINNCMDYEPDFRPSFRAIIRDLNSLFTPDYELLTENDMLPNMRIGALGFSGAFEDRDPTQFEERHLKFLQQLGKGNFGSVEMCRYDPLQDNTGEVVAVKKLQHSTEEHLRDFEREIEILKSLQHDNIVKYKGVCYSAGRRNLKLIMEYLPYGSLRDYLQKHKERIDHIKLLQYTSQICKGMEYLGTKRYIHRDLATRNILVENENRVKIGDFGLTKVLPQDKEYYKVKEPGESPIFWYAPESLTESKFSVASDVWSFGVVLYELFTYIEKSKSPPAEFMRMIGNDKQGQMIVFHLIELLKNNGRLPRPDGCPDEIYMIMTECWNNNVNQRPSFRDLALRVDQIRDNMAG
Experimental: as §2

JAK2(V617F) = target: T5, JAK2(V617F) (Homo sapiens, UniProt O60674, V617F); experiment: Kinase screening, HotSpot assay (Reaction Biology); type: biochemical
T5 construct: purchased Reaction Biology Corporation
T5 sequence (O60674 whole entry V617F): as the sequence (O60674 whole entry) above, with V617F counted along it
Experimental: as §2

FLT3 = target: T6, FLT3 (Homo sapiens, UniProt P36888); experiment: Kinase screening, HotSpot assay (Reaction Biology); type: biochemical
T6 construct: purchased Reaction Biology Corporation
T6 sequence (P36888 27-993): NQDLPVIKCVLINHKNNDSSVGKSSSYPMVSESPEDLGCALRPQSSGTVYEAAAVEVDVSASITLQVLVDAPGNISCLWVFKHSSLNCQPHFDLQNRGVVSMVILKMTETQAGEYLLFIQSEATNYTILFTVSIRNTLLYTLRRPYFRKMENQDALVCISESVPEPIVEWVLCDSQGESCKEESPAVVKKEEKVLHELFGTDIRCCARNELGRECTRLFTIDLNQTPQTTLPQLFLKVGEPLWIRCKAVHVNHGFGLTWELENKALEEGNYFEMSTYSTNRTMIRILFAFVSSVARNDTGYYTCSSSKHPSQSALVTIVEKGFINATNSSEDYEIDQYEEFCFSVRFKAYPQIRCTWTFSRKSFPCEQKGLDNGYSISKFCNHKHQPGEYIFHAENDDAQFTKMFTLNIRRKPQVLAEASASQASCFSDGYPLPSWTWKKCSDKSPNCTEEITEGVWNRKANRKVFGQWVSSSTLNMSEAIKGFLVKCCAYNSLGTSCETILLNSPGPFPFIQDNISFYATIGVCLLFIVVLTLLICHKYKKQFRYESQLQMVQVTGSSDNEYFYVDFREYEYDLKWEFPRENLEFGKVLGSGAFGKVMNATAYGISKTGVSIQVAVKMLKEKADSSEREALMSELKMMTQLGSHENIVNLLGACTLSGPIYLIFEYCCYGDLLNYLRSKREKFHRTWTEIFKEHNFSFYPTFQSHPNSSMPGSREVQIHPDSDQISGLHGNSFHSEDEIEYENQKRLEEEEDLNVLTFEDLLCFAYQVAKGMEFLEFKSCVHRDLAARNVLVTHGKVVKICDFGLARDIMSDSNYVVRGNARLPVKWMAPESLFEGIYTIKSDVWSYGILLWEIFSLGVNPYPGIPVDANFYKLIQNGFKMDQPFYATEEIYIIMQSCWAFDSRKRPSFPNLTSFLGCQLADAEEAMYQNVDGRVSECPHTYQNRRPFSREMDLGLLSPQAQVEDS
Experimental: Kinase screening was performed using a “HotSpot” assay platform method by Reaction Biology Corporation. The reaction buffer used herein contained 20 mM HEPES (pH 7.5), 10 mM MgCl2, 1 mM EGTA, 0.02% Brij35, 0.02 mg/mL BSA, 0.1 mM Na3VO4, 2 mM DTT and 1% DMSO. The required cofactors were added in accordance with the kinase reaction. Freshly made buffer and cofactors were added at a concentration of 20 μM during the selected enzyme reaction. A solution of the test compound in dimethylsulfoxide (DMSO) was added at a suitable concentration to this solution.

RET = target: T7, RET (Homo sapiens, UniProt P07949); experiment: Kinase screening, HotSpot assay (Reaction Biology); type: biochemical
T7 construct: purchased Reaction Biology Corporation
Experimental: as §2

SIK2 = target: T8, SIK2 (Homo sapiens, UniProt Q9H0K1); experiment: Kinase screening, HotSpot assay (Reaction Biology); type: biochemical
T8 construct: purchased Reaction Biology Corporation
Experimental: as §2

AXL(R499C) = target: T9, AXL(R499C) (Homo sapiens, UniProt P30530, R499C); experiment: Kinase screening, HotSpot assay (Reaction Biology); type: biochemical
T9 construct: purchased Reaction Biology Corporation
Experimental: as §2

JAK3 = target: T10, JAK3 (Homo sapiens, UniProt P52333); experiment: Kinase screening, HotSpot assay (Reaction Biology); type: biochemical
T10 construct: purchased Reaction Biology Corporation
Experimental: as §2

LRRK2 = target: T11, LRRK2 (Homo sapiens, UniProt Q5S007); experiment: Kinase screening, HotSpot assay (Reaction Biology); type: biochemical
T11 construct: purchased Reaction Biology Corporation
Experimental: as §2

mLK1/MAP3K9 = target: T12, mLK1/MAP3K9 (Homo sapiens, UniProt P80192); experiment: Kinase screening, HotSpot assay (Reaction Biology); type: biochemical
T12 construct: purchased Reaction Biology Corporation
Experimental: as §2

TYRO3/SKY = target: T13, TYRO3/SKY (Homo sapiens, UniProt Q06418); experiment: Kinase screening, HotSpot assay (Reaction Biology); type: biochemical
T13 construct: purchased Reaction Biology Corporation
Experimental: as §2

PKCmu/PRKD1 = target: T14, PKCmu/PRKD1 (Homo sapiens, UniProt Q15139); experiment: Kinase screening, HotSpot assay (Reaction Biology); type: biochemical
T14 construct: purchased Reaction Biology Corporation
Experimental: as §2

c-MER = target: T15, c-MER (Homo sapiens, UniProt Q12866); experiment: Kinase screening, HotSpot assay (Reaction Biology); type: biochemical
T15 construct: purchased Reaction Biology Corporation
T15 sequence (Q12866 21-999): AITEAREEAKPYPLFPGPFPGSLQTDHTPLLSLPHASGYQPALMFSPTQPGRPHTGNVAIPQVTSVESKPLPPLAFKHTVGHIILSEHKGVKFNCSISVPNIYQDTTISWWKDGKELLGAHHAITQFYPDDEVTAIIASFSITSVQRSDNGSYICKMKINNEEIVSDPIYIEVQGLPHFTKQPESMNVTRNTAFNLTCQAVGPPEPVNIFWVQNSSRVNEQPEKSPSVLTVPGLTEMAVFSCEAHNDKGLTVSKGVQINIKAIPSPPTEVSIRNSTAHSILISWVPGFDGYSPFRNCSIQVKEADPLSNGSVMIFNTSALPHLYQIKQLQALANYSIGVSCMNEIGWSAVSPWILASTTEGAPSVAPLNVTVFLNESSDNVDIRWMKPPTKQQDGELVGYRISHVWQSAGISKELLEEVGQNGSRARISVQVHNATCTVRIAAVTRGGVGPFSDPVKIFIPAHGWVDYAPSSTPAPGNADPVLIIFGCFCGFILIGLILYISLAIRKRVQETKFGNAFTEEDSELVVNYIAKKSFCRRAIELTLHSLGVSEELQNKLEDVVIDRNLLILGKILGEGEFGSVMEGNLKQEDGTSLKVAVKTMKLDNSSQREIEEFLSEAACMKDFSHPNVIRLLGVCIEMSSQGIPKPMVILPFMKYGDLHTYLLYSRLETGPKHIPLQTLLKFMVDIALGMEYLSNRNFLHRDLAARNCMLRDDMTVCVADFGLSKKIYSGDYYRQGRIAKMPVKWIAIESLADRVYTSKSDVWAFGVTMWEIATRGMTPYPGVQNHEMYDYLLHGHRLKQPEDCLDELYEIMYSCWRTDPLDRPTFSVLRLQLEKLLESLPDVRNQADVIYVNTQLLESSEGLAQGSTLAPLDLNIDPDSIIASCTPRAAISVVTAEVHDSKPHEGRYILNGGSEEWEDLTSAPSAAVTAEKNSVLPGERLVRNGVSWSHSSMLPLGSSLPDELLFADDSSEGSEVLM
Experimental: as §2

AXL = target: T16, AXL (Homo sapiens, UniProt P30530); experiment: Kinase screening, HotSpot assay (Reaction Biology); type: biochemical
T16 construct: purchased Reaction Biology Corporation
Experimental: as §2

K-562 cell line = K-562 cell line activity; type: cell-based; conditions: Homo sapiens, K562
MV-4-11 cells = experiment: MV-4-11 cell screening (viable cells by ATP luminescence); type: cell-based; conditions: Homo sapiens, MV4-11, 72 hours incubation, read-out: MV-4-11 cell line (IC50)
Experimental: A control compound was a 1 mM Staurosporine solution in DMSO.
25 μL of culture media containing 2,000 MV-4-11 cells were added and incubated at 37° C. in the presence of 5% CO2 for 72 hours. Then, the culture solution was mixed in an orbital shaker for 2 minutes and incubated at room temperature for 15 minutes. […] IC50 values are measured using the GraphPad Prism 4 program in accordance with the sigmoidal dose-response equation.

CYP 3A4 = CYP 3A4 (Homo sapiens, UniProt P08684); experiment: CYP450 assay (luminescence); type: in vitro ADME; conditions: compound at 10 μM, read-out: inhibitory activity against human CYP 3A4
Experimental: as §1

ARK5/NUAK1 [2] = target: T1, ARK5/NUAK1; conditions: comparative values quoted in text, source not stated; read-out: ARK5/NUAK1 IC50 of comparative compounds; cited from earlier work

Sequence of CYP 2C19 (P33261 whole entry): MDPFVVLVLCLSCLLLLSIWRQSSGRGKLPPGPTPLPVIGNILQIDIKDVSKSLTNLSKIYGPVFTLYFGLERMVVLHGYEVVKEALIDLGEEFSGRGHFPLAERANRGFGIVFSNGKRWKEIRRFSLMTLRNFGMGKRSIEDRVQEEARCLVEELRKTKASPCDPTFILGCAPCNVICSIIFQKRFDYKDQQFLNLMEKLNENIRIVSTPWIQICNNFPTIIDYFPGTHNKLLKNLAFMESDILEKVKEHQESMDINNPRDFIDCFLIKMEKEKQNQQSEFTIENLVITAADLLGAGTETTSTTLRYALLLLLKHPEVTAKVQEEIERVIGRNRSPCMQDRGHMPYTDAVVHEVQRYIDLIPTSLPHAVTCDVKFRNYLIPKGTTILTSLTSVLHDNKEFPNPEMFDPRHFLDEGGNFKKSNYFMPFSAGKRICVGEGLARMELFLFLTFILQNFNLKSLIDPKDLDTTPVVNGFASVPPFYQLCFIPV

CN(C)CCC=C1c2ccccc2CCc2ccccc21 [amitriptyline, reference compound]
inhibition at 20 min, 100 µM (CYP 2C19): 88%

αα-naphthoflavone [reference compound]
inhibitory activity against human CYP 1A2 (CYP 1A2): 97.7

Fc1cnc(Nc2ccc(OCCN3CCCC3)cc2)nc1NCc1ccco1 [Compound 20, 4-(furan-2-yl) methylamino-5-fluoro-2-[4-{2-(pyrrolidin-1-yl)ethoxy}phenylamino]pyrimidine]
GI50 (Ba/F3 FLT3-ITD): 178 nM | GI50 (Ba/F3 parental): 6.67 µM | IC50 (ARK5/NUAK1 [1]): 52.3 nM | IC50 (JAK1): 177 nM | IC50 (ACK1): 101 nM | IC50 (JAK2): 99.1 nM | IC50 (JAK2(V617F)): 238 nM | IC50 (FLT3): 22 nM

Cc1cnc(Nc2ccc(OCCN3CCCC3)cc2)nc1NCc1ccco1 [Compound 1, 4-(furan-2-yl)methylamino-5-methyl-2-[4-{2-(pyrrolidin-1-yl)ethoxy}phenylamino]pyrimidine]
GI50 (Ba/F3 FLT3-ITD): 92 nM | GI50 (Ba/F3 parental): 1.79 µM | IC50 (ARK5/NUAK1 [1]): 5.9 nM | IC50 (RET): 488 nM | IC50 (SIK2): 105 nM | IC50 (AXL(R499C)): 207 nM | IC50 (JAK1): 50 nM | IC50 (JAK3): 207 nM | IC50 (ACK1): 38.8 nM | IC50 (LRRK2): 113 nM | IC50 (mLK1/MAP3K9): 148 nM | IC50 (TYRO3/SKY): 10.7 µM | IC50 (JAK2): 50.1 nM | IC50 (PKCmu/PRKD1): 167 nM | IC50 (c-MER): 14.3 µM | IC50 (JAK2(V617F)): 95.2 nM | IC50 (AXL): 443 nM | IC50 (FLT3): 10.3 nM | IC50 (K-562 cell line): 5.1 µM | IC50 (MV-4-11 cells): 65.9 nM

CC(=O)N1CCN(c2ccc(OCC3COC(Cn4ccnc4)(c4ccc(Cl)cc4Cl)O3)cc2)CC1 (stereo not shown) [ketoconazole, reference compound]
inhibition at 20 min, 10 µM (CYP 3A4): 98.7%

FC(F)(F)c1cnc(Nc2ccc(OCCN3CCCC3)cc2)nc1NCc1ccco1 [Compound 21, 4-(furan-2-yl) methylamino-5-trifluoromethyl-2-[4-{2-(pyrrolidin-1-yl)ethoxy}phenylamino]pyrimidine]
GI50 (Ba/F3 FLT3-ITD): 558 nM | GI50 (Ba/F3 parental): 8.06 µM

Cc1nc(Nc2cnn(C3CCNCC3)c2)nc2c1N(C)C(=O)c1cc3ccccc3cc1N2C [HTH-01-015]
IC50 (ARK5/NUAK1 [2]): 100 nM
